Where a name gives a salt, the structure may show the parent alone.

As a reminder, the DC50 is the concentration giving 50% degradation.

In the assay the target is T1, HiBiT tagged PARP14 (Homo sapiens, UniProt Q460N5).
T1 construct: engineered to contain a HiBiT tag on both alleles of the PARP14 gene; endogenous in cells; host or cells: Jurkat cells stably transfected with LgBiT (Promega), PARP14 locus edited by CRISPR/Cas9
T1 sequence (Q460N5 whole entry): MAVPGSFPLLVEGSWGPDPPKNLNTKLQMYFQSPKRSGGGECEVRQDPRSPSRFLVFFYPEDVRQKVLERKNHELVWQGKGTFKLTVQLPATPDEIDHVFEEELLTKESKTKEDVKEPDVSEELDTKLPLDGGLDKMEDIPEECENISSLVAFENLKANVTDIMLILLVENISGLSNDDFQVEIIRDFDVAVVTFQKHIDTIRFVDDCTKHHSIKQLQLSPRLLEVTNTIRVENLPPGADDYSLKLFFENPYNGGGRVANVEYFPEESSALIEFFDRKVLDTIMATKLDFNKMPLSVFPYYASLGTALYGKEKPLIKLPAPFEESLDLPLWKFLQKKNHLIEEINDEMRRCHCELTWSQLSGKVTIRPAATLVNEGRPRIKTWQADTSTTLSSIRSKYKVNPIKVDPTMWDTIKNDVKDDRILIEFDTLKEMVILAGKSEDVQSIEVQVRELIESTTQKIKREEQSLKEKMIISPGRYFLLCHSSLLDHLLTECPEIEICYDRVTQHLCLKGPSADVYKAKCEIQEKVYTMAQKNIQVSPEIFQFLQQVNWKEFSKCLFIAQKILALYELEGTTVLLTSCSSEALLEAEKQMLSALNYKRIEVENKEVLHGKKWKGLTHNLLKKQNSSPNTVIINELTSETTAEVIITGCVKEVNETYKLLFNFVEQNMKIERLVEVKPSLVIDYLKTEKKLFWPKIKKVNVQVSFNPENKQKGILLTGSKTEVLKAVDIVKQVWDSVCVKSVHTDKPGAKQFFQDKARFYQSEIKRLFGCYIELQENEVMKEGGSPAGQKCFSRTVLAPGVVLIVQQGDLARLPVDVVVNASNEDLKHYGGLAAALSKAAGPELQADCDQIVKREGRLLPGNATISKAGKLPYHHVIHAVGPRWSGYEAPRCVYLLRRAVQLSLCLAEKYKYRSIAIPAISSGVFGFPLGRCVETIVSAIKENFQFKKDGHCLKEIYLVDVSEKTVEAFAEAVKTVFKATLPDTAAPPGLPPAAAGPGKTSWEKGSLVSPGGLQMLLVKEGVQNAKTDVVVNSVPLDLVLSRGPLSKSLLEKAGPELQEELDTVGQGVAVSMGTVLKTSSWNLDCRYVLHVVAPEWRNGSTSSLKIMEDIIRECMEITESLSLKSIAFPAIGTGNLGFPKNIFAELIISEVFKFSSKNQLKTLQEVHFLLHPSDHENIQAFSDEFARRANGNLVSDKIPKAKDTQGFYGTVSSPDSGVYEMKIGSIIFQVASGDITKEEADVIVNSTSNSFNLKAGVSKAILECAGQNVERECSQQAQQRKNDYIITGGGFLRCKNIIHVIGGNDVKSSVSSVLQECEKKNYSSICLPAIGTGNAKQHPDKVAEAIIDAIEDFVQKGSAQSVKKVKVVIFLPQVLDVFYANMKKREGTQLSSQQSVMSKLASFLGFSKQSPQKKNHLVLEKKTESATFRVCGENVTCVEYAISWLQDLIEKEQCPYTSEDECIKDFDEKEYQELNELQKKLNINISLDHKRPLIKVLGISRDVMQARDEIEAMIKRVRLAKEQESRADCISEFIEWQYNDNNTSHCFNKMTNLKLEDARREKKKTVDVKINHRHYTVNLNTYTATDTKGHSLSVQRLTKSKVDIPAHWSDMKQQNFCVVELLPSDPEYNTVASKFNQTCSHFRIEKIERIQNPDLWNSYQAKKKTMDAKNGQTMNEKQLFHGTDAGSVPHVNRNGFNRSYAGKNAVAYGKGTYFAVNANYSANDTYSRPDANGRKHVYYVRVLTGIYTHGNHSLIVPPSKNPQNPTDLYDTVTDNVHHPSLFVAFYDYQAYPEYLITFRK
Kind of assay: HiBiT assay for the degradation of PARP14 (HiBiT tagged PARP14 in LgBiT expressing Jurkat cells, 2 or 24 hours). In kind it is cell-based. The settings on record: Assay B (Example B): HiBiT tagged PARP14 degradation in LgBiT expressing Jurkat cells, read-out: DC50. In outline:
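Jurkat cells stably expressing LgBiT with CRISPR knock-in of C-terminal HiBiT on both PARP14 alleles, 5,000 cells/well, treated with compound dose-response at 37 °C for 2 or 24 h. Live Cell Substrate luminescence normalised to 0.1% DMSO wells; DC50 from 4-parameter fit with floating top, bottom, Hill.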
For orientation: With HiBiT, luminescence reflects the tagged protein that the partner subunit can reach.
Regarding `CN(C(=O)C1CCN(CCN2CCC(COc3cc(F)c4c(=O)[nH]c(COC5CCOCC5)nc4c3)CC2)CC1)c1ccc(NC2CCC(=O)NC2=O)cc1F` (stereo not drawn) [Example 202, N-(4-((2,6-dioxopiperidin-3-yl)amino)-2-fluorophenyl)-1-(2-(4-(((5-fluoro-4-oxo-2-(((tetrahydro-2H-pyran-4-yl)oxy)methyl)-3,4-dihydroquinazolin-7-yl)oxy)methyl)piperidin-1-yl)ethyl)-N-methylpiperidine-4-carboxamide], the DC50 is less than 30 nM.
As for `O=C1CCC(Nc2ccc(N3CCC(C(=O)N4CCC(COc5cc(F)c6c(=O)[nH]c(CSC7CCOCC7)nc6c5)CC4)CC3)c(F)c2)C(=O)N1` (stereo not drawn) [Example 153, 3-((3-fluoro-4-(4-(4-(((5-fluoro-4-oxo-2-(((tetrahydro-2H-pyran-4-yl)thio)methyl)-3,4-dihydroquinazolin-7-yl)oxy)methyl)piperidine-1-carbonyl)piperidin-1-yl)phenyl)amino)piperidine-2,6-dione], the DC50 is less than 30 nM.
Turning to `O=C1CCC(Nc2ccc(N3CCC(N4CC(N5CCC(COc6cc(F)c7c(=O)[nH]c(CSC8CCOCC8)nc7c6)CC5)C4)CC3)c(F)c2)C(=O)N1` (stereo not drawn) [Example 116, 3-((3-fluoro-4-(4-(3-(4-(((5-fluoro-4-oxo-2-(((tetrahydro-2H-pyran-4-yl)thio)methyl)-3,4-dihydroquinazolin-7-yl)oxy)methyl)piperidin-1-yl)azetidin-1-yl)piperidin-1-yl)phenyl)amino)piperidine-2,6-dione], the DC50 was less than 30 nM.
Regarding `O=C1CCC(Nc2ccc(N3CCN(C4CCN(CCOc5cc(F)c6c(=O)[nH]c(CSC7CCOCC7)nc6c5)CC4)CC3)c(F)c2)C(=O)N1` (stereo not drawn) [Example 126], the DC50 was less than 30 nM.
For the compound `Cn1nc(N2CCC(=O)NC2=O)c2cc(F)c(N3CC(N4CCC(COc5cc(F)c6c(=O)[nH]c(CSC7CCOCC7)nc6c5)CC4)C3)cc21` [Example 185, 1-(5-fluoro-6-(3-(4-(((5-fluoro-4-oxo-2-(((tetrahydro-2H-pyran-4-yl)thio)methyl)-3,4-dihydroquinazolin-7-yl)oxy)methyl)piperidin-1-yl)azetidin-1-yl)-1-methyl-1H-indazol-3-yl)dihydropyrimidine-2,4(1H,3H)-dione], the DC50 was less than 30 nM.
On to `Cn1nc(N2CCC(=O)NC2=O)c2ccc(C3CCN(CCOc4cc(F)c5c(=O)[nH]c(CSC6CCOCC6)nc5c4)CC3)cc21` [Example 186, 1-(6-(1-(2-((5-fluoro-4-oxo-2-(((tetrahydro-2H-pyran-4-yl)thio)methyl)-3,4-dihydroquinazolin-7-yl)oxy)ethyl)piperidin-4-yl)-1-methyl-1H-indazol-3-yl)dihydropyrimidine-2,4(1H,3H)-dione], for which the DC50 is less than 30 nM.
For `O=C1CCC(Nc2ccc(N3CCC(N4CCC(COc5cc(F)c6c(=O)[nH]c(COC7CCOCC7)nc6c5)CC4)CC3)c(F)c2)C(=O)N1` (stereo not drawn) [Example 135, 3-((3-fluoro-4-(4-(((5-fluoro-4-oxo-2-(((tetrahydro-2H-pyran-4-yl)oxy)methyl)-3,4-dihydroquinazolin-7-yl)oxy)methyl)-[1,4′-bipiperidin]-1′-yl)phenyl)amino)piperidine-2,6-dione formate] the value was less than 30 nM; for `O=C1CCC(Nc2ccc(OC3CCN(CCN4CCC(COc5cc(F)c6c(=O)[nH]c(CSC7CCOCC7)nc6c5)CC4)CC3)cc2)C(=O)N1` (stereo not drawn) [Example 120, 3-((4-((1-(2-(4-(((5-fluoro-4-oxo-2-(((tetrahydro-2H-pyran-4-yl)thio)methyl)-3,4-dihydroquinazolin-7-yl)oxy)methyl)piperidin-1-yl)ethyl)piperidin-4-yl)oxy)phenyl)amino)piperidine-2,6-dione], less than 30 nM; for `O=C1CCC(Nc2ccc(N3CCN(CC4CCN(CCOc5cc(F)c6c(=O)[nH]c(CSC7CCOCC7)nc6c5)CC4)CC3)c(F)c2)C(=O)N1` (stereo not drawn) [Example 213, 3-((3-fluoro-4-(4-((1-(2-((5-fluoro-4-oxo-2-(((tetrahydro-2H-pyran-4-yl)thio)methyl)-3,4-dihydroquinazolin-7-yl)oxy)ethyl)piperidin-4-yl)methyl)piperazin-1-yl)phenyl)amino)piperidine-2,6-dione], less than 30 nM.
For `O=C1CCC(Nc2ccc(N3CCC(N4CCC(COc5cc(F)c6c(=O)[nH]c(COC7CCOCC7)nc6c5)CC4)CC3)cc2)C(=O)N1` (stereo not drawn) [Example 115], the DC50 is less than 30 nM.
Take `O=C1CCC(Nc2ccc(N3CCC(N4CCC(COc5cc(F)c6c(=O)[nH]c(CSC7CCOCC7)nc6c5)CC4)CC3)cc2)C(=O)N1` (stereo not drawn) [Example 112, 3-((4-(4-(((5-fluoro-4-oxo-2-(((tetrahydro-2H-pyran-4-yl)thio)methyl)-3,4-dihydroquinazolin-7-yl)oxy)methyl)-[1,4′-bipiperidin]-1′-yl)phenyl)amino)piperidine-2,6-dione]: the DC50 was less than 30 nM.
`O=C1CCC(Nc2ccc(N3CCC4(CC3)CC(N3CCC(COc5cc(F)c6c(=O)[nH]c(CSC7CCOCC7)nc6c5)CC3)C4)c(F)c2)C(=O)N1` (stereo not drawn) [Example 143, 3-((3-fluoro-4-(2-(4-(((5-fluoro-4-oxo-2-(((tetrahydro-2H-pyran-4-yl)thio)methyl)-3,4-dihydroquinazolin-7-yl)oxy)methyl)piperidin-1-yl)-7-azaspiro[3.5]nonan-7-yl)phenyl)amino)piperidine-2,6-dione]: the DC50 was less than 30 nM.
With `O=C1CCC(Nc2ccc(N3CCC(C(=O)N4CCC(N5CCC(COc6cc(F)c7c(=O)[nH]c(CSC8CCOCC8)nc7c6)CC5)CC4)CC3)c(F)c2)C(=O)N1` (stereo not drawn) [Example 173, 3-((3-fluoro-4-(4-(4-(((5-fluoro-4-oxo-2-(((tetrahydro-2H-pyran-4-yl)thio)methyl)-3,4-dihydroquinazolin-7-yl)oxy)methyl)-[1,4′-bipiperidine]-1′-carbonyl)piperidin-1-yl)phenyl)amino)piperidine-2,6-dione formate], the DC50 was less than 30 nM.
As for `O=C1CCC(Nc2ccc(NC(=O)[C@@H]3CCN(CCN4CCC(COc5cc(F)c6c(=O)[nH]c(COC7CCOCC7)nc6c5)CC4)C3)c(F)c2)C(=O)N1` (stereo partly drawn) [Example 200, (3R)-N-(4-((2,6-dioxopiperidin-3-yl)amino)-2-fluorophenyl)-1-(2-(4-(((5-fluoro-4-oxo-2-(((tetrahydro-2H-pyran-4-yl)oxy)methyl)-3,4-dihydroquinazolin-7-yl)oxy)methyl)piperidin-1-yl)ethyl)pyrrolidine-3-carboxamide], the DC50 was less than 30 nM.
On to `O=C1CCC(Nc2ccc(N3CCN(CCN4CCC(C#Cc5cc(F)c6c(=O)[nH]c(CSC7CCOCC7)nc6c5)CC4)CC3)c(F)c2)C(=O)N1` (stereo not drawn) [Example 226, 3-((3-fluoro-4-(4-(2-(4-((5-fluoro-4-oxo-2-(((tetrahydro-2H-pyran-4-yl)thio)methyl)-3,4-dihydroquinazolin-7-yl)ethynyl)piperidin-1-yl)ethyl)piperazin-1-yl)phenyl)amino)piperidine-2,6-dione formate], for which the DC50 was less than 30 nM.
In the case of `O=C1CCC(Nc2ccc(N3CCN(CCN4CCC(COc5cc(F)c6c(=O)[nH]c(CSC7CCOCC7)nc6c5)CC4)CC3)c(Cl)c2)C(=O)N1` (stereo not drawn) [Example 137], the DC50 was less than 30 nM.
`Cn1nc(C2CCC(=O)NC2=O)c2ccc(N3CCN(CCN4CCC(COc5cc(F)c6c(=O)[nH]c(CSC7CCOCC7)nc6c5)CC4)CC3)cc21` (stereo not drawn) [Example 102, 3-(6-(4-(2-(4-(((5-Fluoro-4-oxo-2-(((tetrahydro-2H-pyran-4-yl)thio)methyl)-3,4-dihydroquinazolin-7-yl)oxy)methyl)piperidin-1-yl)ethyl)piperazin-1-yl)-1-methyl-1H-indazol-3-yl)piperidine-2,6-dione]: the half-maximal degradation concentration (DC50) was less than 30 nM.
On to `O=C1CCC(Nc2ccc(N3CCC(C(=O)N4CCC(N5CCC(COc6cc(F)c7c(=O)[nH]c(COC8CCOCC8)nc7c6)CC5)CC4)CC3)c(F)c2)C(=O)N1` (stereo not drawn) [Example 172, 3-((3-fluoro-4-(4-(4-(((5-fluoro-4-oxo-2-(((tetrahydro-2H-pyran-4-yl)oxy)methyl)-3,4-dihydroquinazolin-7-yl)oxy)methyl)-[1,4′-bipiperidine]-1′-carbonyl)piperidin-1-yl)phenyl)amino)piperidine-2,6-dione], for which the DC50 was less than 30 nM.
With `O=C1CCN(c2ccc(N3CCN(CCN4CCC(COc5cc(F)c6c(=O)[nH]c(CSC7CCOCC7)nc6c5)CC4)CC3)c(F)c2)C(=O)N1` [Example 196, 1-(3-fluoro-4-(4-(2-(4-(((5-fluoro-4-oxo-2-(((tetrahydro-2H-pyran-4-yl)thio)methyl)-3,4-dihydroquinazolin-7-yl)oxy)methyl)piperidin-1-yl)ethyl)piperazin-1-yl)phenyl)dihydropyrimidine-2,4(1H,3H)-dione], the DC50 is less than 30 nM.
In the case of `O=C1CCC(Nc2cnc(N3CCN(CCN4CCC(COc5cc(F)c6c(=O)[nH]c(CSC7CCOCC7)nc6c5)CC4)CC3)c(F)c2)C(=O)N1` (stereo not drawn) [Example 108, 3-((5-fluoro-6-(4-(2-(4-(((5-fluoro-4-oxo-2-(((tetrahydro-2H-pyran-4-yl)thio)methyl)-3,4-dihydroquinazolin-7-yl)oxy)methyl)piperidin-1-yl)ethyl)piperazin-1-yl)pyridin-3-yl)amino)piperidine-2,6-dione], the DC50 was less than 30 nM.
Take `Cn1nc(N2CCC(=O)NC2=O)c2cc(F)c(N3CCC(N4CCC(COc5cc(F)c6c(=O)[nH]c(COC7CCOCC7)nc6c5)CC4)CC3)cc21` [Example 160, 1-(5-fluoro-6-(4-(((5-fluoro-4-oxo-2-(((tetrahydro-2H-pyran-4-yl)oxy)methyl)-3,4-dihydroquinazolin-7-yl)oxy)methyl)-[1,4′-bipiperidin]-1′-yl)-1-methyl-1H-indazol-3-yl)dihydropyrimidine-2,4(1H,3H)-dione]: the DC50 was less than 30 nM.

(Values after US20240101540A1, “TARGETED PROTEIN DEGRADATION OF PARP14 FOR USE IN THERAPY” (Ribon Therapeutics, Inc., priority 2022, published 2024).)
